Data reported in patent US20130164384A1, “METHODS OF TREATING BOWEL DISEASES BY ADMINISTERING A BOWEL CLEANSER AND AN ANTIBIOTIC” (Salix Pharmaceuticals, Ltd., priority 2008, published 2013).

Test system: subjects with dIBS
Assay: Study of three rifaximin doses in subjects with dIBS: adequate relief of IBS symptoms and bloating
Type: in vivo, human
Details: for Adequate Relief of Bloating: Success / Adequate Relief of IBS Symptoms: Failure / Adequate Relief of IBS Symptoms: Success / Adequate Relief of Bloating: Failure: end of treatment phase
Protocol: This example relates to a study of three rifaximin doses in subjects with dIBS. Subjects were randomized to receive daily BID doses of rifaximin 275 mg, 550 mg, or 1100 mg for 14 days. A fifth group of subjects received rifaximin 550 mg BID for a period of 28 days. Subjects were questioned on the relief of overall IBS symptoms and bloating. […] The analyses defined success as a “yes” response to questions regarding adequate relief of SGA or IBS-B in at least 2 out of the final 3 weeks of the double-blind treatment period.
Baseline severity was determined using 7-point Lickert scales during screening for Abdominal Pain/Discomfort and Bloating, and the number, type (normal, hard, loose) and urgency of bowel movements.
Duration of effect was assessed in a 12 week follow-up period. Subjects that responded in the 4 week double-blind treatment period were followed for an additional 3 months. Fifty-three (53) subjects from the 550 mg 2 w and 59 subjects from the placebo-treated groups participated in this study phase.
Subjects recorded the following information on dIBS symptoms daily throughout the duration of the study: • Number of normal stools/day; • Number of hard and lumpy stools/day; • Number of loose or watery stools/day; • Number of loose or watery stools/day with the symptom of urgency; • How bothersome is abdominal pain and discomfort? [7-point response scale: 0 (not at all) to 6 (a very great deal)]; • How bothersome is bloating? [(7-point response scale: 0 (not at all) to 6 (a very great deal)].
Weekly summary variables were computed by averaging the recorded values over all pre-treatment days or over the seven days preceding the time point of interest for post-treatment assessments. For example, baseline included Days −10 to 0, Week 1 included Days 1 to 7, Week 2 included Days 8 to 14, and so forth through Week 16. Changes from baseline variables were computed for each weekly summary score.

[1] = RFX 550 2 w (550 mg BID 14 days), had screening colonoscopy, Average Bloating Discomfort Score at Baseline >4
[2] = RFX 550 4 w (550 mg BID 28 days), Had a Screening Colonoscopy: No
[3] = RFX 550 4 w (550 mg BID 28 days), Had a Screening Colonoscopy: Yes
[4] = RFX 550 4 w (550 mg BID 28 days), Screening Colonoscopy <=26 Days
[5] = RFX 550 4 w (550 mg BID 28 days), Screening Colonoscopy >26 Days
[6] = RFX 550 4 w (550 mg BID 28 days), had screening colonoscopy, Average Abdominal Pain Discomfort Score at Baseline <=4
[7] = RFX 550 4 w (550 mg BID 28 days), had screening colonoscopy, Average Abdominal Pain Discomfort Score at Baseline >4
[8] = RFX 550 4 w (550 mg BID 28 days), had screening colonoscopy, Average Bloating Discomfort Score at Baseline <=4
[9] = RFX 550 4 w (550 mg BID 28 days), had screening colonoscopy, Average Bloating Discomfort Score at Baseline >4
[10] = RFX 1100 2 w (1100 mg BID 14 days), Had a Screening Colonoscopy: No
[11] = RFX 1100 2 w (1100 mg BID 14 days), Had a Screening Colonoscopy: Yes
[12] = RFX 1100 2 w (1100 mg BID 14 days), Screening Colonoscopy <=26 Days
[13] = RFX 1100 2 w (1100 mg BID 14 days), Screening Colonoscopy >26 Days
[14] = RFX 1100 2 w (1100 mg BID 14 days), had screening colonoscopy, Average Abdominal Pain Discomfort Score at Baseline <=4
[15] = RFX 1100 2 w (1100 mg BID 14 days), had screening colonoscopy, Average Abdominal Pain Discomfort Score at Baseline >4
[16] = RFX 1100 2 w (1100 mg BID 14 days), had screening colonoscopy, Average Bloating Discomfort Score at Baseline <=4
[17] = RFX 1100 2 w (1100 mg BID 14 days), had screening colonoscopy, Average Bloating Discomfort Score at Baseline >4

In the case of `COC1/C=C/OC2(C)Oc3c(C)c(O)c4c(O)c(c5c(nc6cc(C)ccn65)c4c3C2=O)NC(=O)/C(C)=C\C=C\C(C)C(O)C(C)C(O)C(C)C(OC(C)=O)C1C` [RFX, (2S,16Z,18E,20S,21S,22R,23R,24R,25S,26S,27S,28E)-5,6,21,23,25 Pentahydroxy-27-methoxy-2,4,11,16,20,22,24,26-octamethyl-2,7-(epoxypentadeca-(1,11,13)trienimino)benzofuro(4,5-e)pyrido(1,2,-a)benzimidazole-1,15(2H)-dione,25-acetate], the “Adequate Relief of Bloating: Success” value [1] is reported as 8 (50.0%) n (%), the “Adequate Relief of IBS Symptoms: Failure” value [1] is reported as 8 (50.0%) n (%) and the “Adequate Relief of IBS Symptoms: Success” value [1] is reported as 8 (50.0%) n (%). For the same molecule, the “Adequate Relief of Bloating: Failure” value [2] was 37 (64.9%) n (%), the “Adequate Relief of Bloating: Success” value [2] was 20 (35.1%) n (%) and the “Adequate Relief of IBS Symptoms: Failure” value [2] was 35 (61.4%) n (%). For the same molecule, the “Adequate Relief of IBS Symptoms: Success” value [2] was 22 (38.6%) n (%), the “Adequate Relief of Bloating: Failure” value [3] was 23 (56.1%) n (%) and the “Adequate Relief of Bloating: Success” value [3] was 18 (43.9%) n (%). For the same molecule, the “Adequate Relief of IBS Symptoms: Failure” value [3] was 22 (53.7%) n (%), the “Adequate Relief of IBS Symptoms: Success” value [3] was 19 (46.3%) n (%) and the “Adequate Relief of Bloating: Failure” value [4] was 12 (48.0%) n (%). For the same molecule, the “Adequate Relief of Bloating: Success” value [4] was 13 (52.0%) n (%), the “Adequate Relief of IBS Symptoms: Failure” value [4] was 11 (44.0%) n (%) and the “Adequate Relief of IBS Symptoms: Success” value [4] was 14 (56.0%) n (%). For the same molecule, the “Adequate Relief of Bloating: Failure” value [5] was 11 (68.8%) n (%), the “Adequate Relief of Bloating: Success” value [5] was 5 (31.3%) n (%) and the “Adequate Relief of IBS Symptoms: Failure” value [5] was 11 (68.8%) n (%). The “Adequate Relief of IBS Symptoms: Success” value [5] was 5 (31.3%) n (%), the “Adequate Relief of Bloating: Failure” value [6] was 19 (59.4%) n (%) and the “Adequate Relief of Bloating: Success” value [6] was 13 (40.6%) n (%). The “Adequate Relief of IBS Symptoms: Failure” value [6] was 19 (59.4%) n (%), the “Adequate Relief of IBS Symptoms: Success” value [6] was 13 (40.6%) n (%) and the “Adequate Relief of Bloating: Failure” value [7] was 4 (44.4%) n (%). For the same molecule, the “Adequate Relief of Bloating: Success” value [7] was 5 (55.6%) n (%), the “Adequate Relief of IBS Symptoms: Failure” value [7] was 3 (33.3%) n (%) and the “Adequate Relief of IBS Symptoms: Success” value [7] was 6 (66.7%) n (%). For the same molecule, the “Adequate Relief of Bloating: Failure” value [8] was 15 (57.7%) n (%), the “Adequate Relief of Bloating: Success” value [8] was 11 (42.3%) n (%) and the “Adequate Relief of IBS Symptoms: Failure” value [8] was 15 (57.7%) n (%). For the same molecule, the “Adequate Relief of IBS Symptoms: Success” value [8] was 11 (42.3%) n (%), the “Adequate Relief of Bloating: Failure” value [9] was 8 (53.3%) n (%) and the “Adequate Relief of Bloating: Success” value [9] was 7 (46.7%) n (%). For the same molecule, the “Adequate Relief of IBS Symptoms: Failure” value [9] was 7 (46.7%) n (%), the “Adequate Relief of IBS Symptoms: Success” value [9] was 8 (53.3%) n (%) and the “Adequate Relief of Bloating: Failure” value [10] was 30 (66.7%) n (%). The “Adequate Relief of Bloating: Success” value [10] was 15 (33.3%) n (%), the “Adequate Relief of IBS Symptoms: Failure” value [10] was 27 (60.0%) n (%) and the “Adequate Relief of IBS Symptoms: Success” value [10] was 18 (40.0%) n (%). For the same molecule, the “Adequate Relief of Bloating: Failure” value [11] was 31 (57.4%) n (%), the “Adequate Relief of Bloating: Success” value [11] was 23 (42.6%) n (%) and the “Adequate Relief of IBS Symptoms: Failure” value [11] was 31 (57.4%) n (%). The “Adequate Relief of IBS Symptoms: Success” value [11] was 23 (42.6%) n (%), the “Adequate Relief of Bloating: Failure” value [12] was 20 (55.6%) n (%) and the “Adequate Relief of Bloating: Success” value [12] was 16 (44.4%) n (%). For the same molecule, the “Adequate Relief of IBS Symptoms: Failure” value [12] was 19 (52.8%) n (%), the “Adequate Relief of IBS Symptoms: Success” value [12] was 17 (47.2%) n (%) and the “Adequate Relief of Bloating: Failure” value [13] was 11 (61.1%) n (%). For the same molecule, the “Adequate Relief of Bloating: Success” value [13] was 7 (38.9%) n (%), the “Adequate Relief of IBS Symptoms: Failure” value [13] was 12 (66.7%) n (%) and the “Adequate Relief of IBS Symptoms: Success” value [13] was 6 (33.3%) n (%). The “Adequate Relief of Bloating: Failure” value [14] was 22 (50.0%) n (%), the “Adequate Relief of Bloating: Success” value [14] was 22 (50.0%) n (%) and the “Adequate Relief of IBS Symptoms: Failure” value [14] was 23 (52.3%) n (%). For the same molecule, the “Adequate Relief of IBS Symptoms: Success” value [14] was 21 (47.7%) n (%), the “Adequate Relief of Bloating: Failure” value [15] was 9 (90.0%) n (%) and the “Adequate Relief of Bloating: Success” value [15] was 1 (10.0%) n (%). The “Adequate Relief of IBS Symptoms: Failure” value [15] was 8 (80.0%) n (%), the “Adequate Relief of IBS Symptoms: Success” value [15] was 2 (20.0%) n (%) and the “Adequate Relief of Bloating: Failure” value [16] was 21 (47.7%) n (%). The “Adequate Relief of Bloating: Success” value [16] was 23 (52.3%) n (%), the “Adequate Relief of IBS Symptoms: Failure” value [16] was 21 (47.7%) n (%) and the “Adequate Relief of IBS Symptoms: Success” value [16] was 23 (52.3%) n (%). The “Adequate Relief of Bloating: Failure” value [17] was 10 (100.0%) n (%), the “Adequate Relief of Bloating: Success” value [17] was 0 n (%) and the “Adequate Relief of IBS Symptoms: Failure” value [17] was 10 (100.0%) n (%). For the same molecule, the “Adequate Relief of IBS Symptoms: Success” value [17] was 0 n (%), the “Likelihood of treatment effect with a purgative prior to rifaximin versus no cleanser” value (purgative prior to treatment) was “much more likely to have a treatment effect” and the “Rate of success in relief of symptoms with screening colonoscopy (GI cleanser) prior to rifaximin” value (subjects who had a screening colonoscopy) was “higher rate of success in relief of symptoms”.
